Laboratory results: patent US10246414B2, “Allosteric modulators of CB1 cannabinoid receptors” (Northeastern University, priority 2012, dated 2019)

Molecular target: CB1 cannabinoid receptors (CNR1 cAMP Hunter cell line) (Homo sapiens, UniProt P21554)
Assay: cAMP Hunter (DiscoveRx HitHunter cAMP XS+) allosteric modulation assay with CP55,940 at EC20
Type: cell-based
Conditions: not given
Description: Once it was established that the cells were healthy and growing normally, cells were passaged from flasks using cell dissociation reagent buffer and seeded into white walled clear bottom 384-well microplates for compound profiling. For profiling, cells were seeded at a density of 10000 cells per well in a total volume of 20 μL and were allowed to adhere and recover overnight prior to compound addition. Cells were treated the following day using the protocols shown below. cAMP modulation was determined using the DiscoveRx HitHunter cAMP XS+ assay.
Media was aspirated from cells and replaced with 10 μL 1:1 HBSS/Hepes: cAMP XS+Ab reagent. Agonist (CP55,940) dose curves were performed to determine the EC20 value for the following testing with compounds. 5 μL of 4× agonist was added to each well with an equal concentration of vehicle present. EC20 agonist concentration was determined directly from agonist dose curve.
For allosteric determination, cells were preincubated with compound followed by agonist challenge at the EC20 concentration. 5 μL of 4× compound was added to cells and incubated at 37° C. for 30 minutes. 5 μL of 4× EC20 agonist was added to cells and incubated at 37° C. for 30 minutes.
Signal Detection: After appropriate compound incubation, assay signal was generated through incubation with 20 μL cAMP XS+ED/CL lysis cocktail for one hour followed by incubation with 20 μL cAMP XS+EA reagent for three hours at room temperature. Microplates were read following signal generation with a PerkinElmer Envision™ instrument for chemiluminescent signal detection.
Data Analysis: Dose curves were plotted using GraphPad Prism or Activity Base. The percentage activity is calculated using the following formula: % Activity=100%×(1−(mean RLU of test sample−mean RLU of MAX control)/(mean RLU of vehicle control [EC20 for PAM]−mean RLU of MAXcontrol).
Agonist (CP55,940) dose curves were performed for the CNR1 PathHunter and cAMP Hunter cell lines. […] The cAMP assay was performed in the presence of 20 μM forskolin (EC80).

CB1 cannabinoid receptors (CNR1 cAMP Hunter cell line), sequence (P21554 whole entry): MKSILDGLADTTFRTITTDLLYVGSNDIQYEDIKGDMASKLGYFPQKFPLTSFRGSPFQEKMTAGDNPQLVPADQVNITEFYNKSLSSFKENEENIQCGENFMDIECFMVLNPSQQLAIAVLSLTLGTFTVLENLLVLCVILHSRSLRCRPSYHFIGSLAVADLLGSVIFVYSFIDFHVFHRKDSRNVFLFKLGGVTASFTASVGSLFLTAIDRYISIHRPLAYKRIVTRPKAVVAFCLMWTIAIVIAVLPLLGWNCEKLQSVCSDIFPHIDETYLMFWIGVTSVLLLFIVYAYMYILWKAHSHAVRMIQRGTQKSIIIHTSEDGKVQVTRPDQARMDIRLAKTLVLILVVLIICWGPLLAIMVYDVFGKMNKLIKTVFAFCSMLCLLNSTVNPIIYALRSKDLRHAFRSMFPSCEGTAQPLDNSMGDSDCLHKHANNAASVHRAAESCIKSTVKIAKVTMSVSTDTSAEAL

SMILES | Emax | EC50
O=[N+]([O-])CC(c1ccccc1)c1c(-c2ccccc2)[nH]c2ccccc12 (racemic) [Compound 1, 3-(2-Nitro-1-phenylethyl)-2-phenyl-1H-indole, reference compound] | 80% | 
O=[N+]([O-])CC(c1ccccn1)c1c(-c2ccccc2)[nH]c2ccccc12 (racemic) [Compound 10, 3-(2-Nitro-1-(pyridin-2-yl)ethyl)-2-phenyl-1H-indole] | 96% | 456 nM
O=[N+]([O-])C[C@H](c1ccccc1)c1c(-c2ccccc2)[nH]c2ccccc12 (single isomer, unassigned) [Compound 2] | 75% | 
O=[N+]([O-])C[C@@H](c1ccccc1)c1c(-c2ccccc2)[nH]c2ccccc12 (single isomer, unassigned) [Compound 3] | 96% | 
O=[N+]([O-])C[C@H](c1ccccn1)c1c(-c2ccccc2)[nH]c2ccccc12 (single isomer, unassigned) [Compound 11] | 120% | 300 nM
O=[N+]([O-])C[C@@H](c1ccccn1)c1c(-c2ccccc2)[nH]c2ccccc12 (single isomer, unassigned) [Compound 12] | 119% | 417 nM
O=[N+]([O-])CC(c1ccc(N2CCCCC2)cc1)c1c(-c2ccccc2)[nH]c2ccccc12 (stereo not shown) [Compound 4, 3-(2-Nitro-1-(4-(piperidin-1-yl)phenyl)ethyl)-2-phenyl-1H-indole] | 101% | 590 nM
O=[N+]([O-])CC(c1ccc(-c2ccccc2)cc1)c1c(-c2ccccc2)[nH]c2ccccc12 (stereo not shown) [Compound 5, 3-(1-([1,1′-Biphenyl]-4-yl)-2-nitroethyl)-2-phenyl-1H-indole] | 0% | > 10000 nM
O=[N+]([O-])CC(c1ccccc1)c1c(-c2ccc3ccccc3c2)[nH]c2ccccc12 (stereo not shown) [Compound 6] | 65% | 744 nM
O=[N+]([O-])CC(c1ccccc1)c1c(-c2ccccc2)[nH]c2ccc(Cl)cc12 (stereo not shown) [Compound 7, 5-Chloro-3-(2-nitro-1-phenylethyl)-2-phenyl-1H-indole] | 44% | 1010 nM
O=[N+]([O-])c1cccc(-c2c(-c3ccccc3)[nH]c3ccccc23)c1 [Compound 8, 3-(3-Nitrophenyl)-2-phenyl-1H-indole] | 54% | > 10000 nM
O=[N+]([O-])CC(c1ccccc1)c1cn(-c2ccccc2)c2ccccc12 (stereo not shown) [Compound 9, 3-(2-Nitro-1-phenylethyl)-1-phenyl-1H-indole] | 105% | 920 nM
O=[N+]([O-])CC(c1ccccc1)c1c(-c2ccc(F)cc2)[nH]c2ccccc12 (stereo not shown) [Compound 13, 2-(4-Fluorophenyl)-3-(2-nitro-1-phenylethyl)-1H-indole] | 110% | 327 nM
O=[N+]([O-])CC(c1ccccc1)c1c(-c2ccc(Cl)cc2)[nH]c2ccccc12 (stereo not shown) [Compound 14, 2-(4-Chlorophenyl)-3-(2-nitro-1-phenylethyl)-1H-indole] | 115% | 650 nM
O=[N+]([O-])CC(c1ccccc1)c1c(-c2ccc(F)c(Cl)c2)[nH]c2ccccc12 (stereo not shown) [Compound 15, 2-(3-Chloro-4-fluorophenyl)-3-(2-nitro-1-phenylethyl)-1H-indole] | 110% | 411 nM

Test system: extracellular dopamine levels in nucleus accumbens
Assay: In vivo microdialysis, dopamine in shell of nucleus accumbens
Design: species or system Sprague-Dawley male rats
Conditions: 30 mg/kg IP, rat nucleus accumbens shell, dialysate samples every 20 minutes; ANOVA p=0.325, NS
Description: Concentric microdialysis probes with 2 mm-long dialysis membranes were prepared as described previously (Pontieri, Tanda & DiChiara 1995). Sprague-Dawley male rats were anesthetized with Equithesin and probes were surgically implanted in the shell of nucleus accumbens (coordinates with respect to bregma: anterior, +2.2; lateral, −1.0; vertical −8.0 from dura). Ringer's solution (147 mM NaCl, 2.2 mM CaCl2, 4.0 mM KCl) was pumped through the dialysis probe at a constant flow rate of 1 uL/minute. […] Collection of dialysate samples started after 20 minutes, with samples collected every 20 minutes and immediately analyzed by a high-performance liquid chromatography system coupled to electrochemical detection to quantify dopamine.
Results are presented as group means (±SEM). Microdialysis data were analyzed using two-way ANOVA.

SMILES | change in extracellular dopamine levels after injection
O=[N+]([O-])CC(c1ccccc1)c1c(-c2ccccc2)[nH]c2ccccc12 (racemic) [Compound 1, 3-(2-Nitro-1-phenylethyl)-2-phenyl-1H-indole, reference compound] | no significant change
